Reference: patent publication US11919965B2, “Methods of treating multiple myeloma with bispecific anti-BCMA x anti-CD3 antibodies” (Regeneron Pharmaceuticals, Inc., priority 2019, dated 2024)

Experiments:
B16/BCMA tumors = experiment: Syngenic tumor model in CD3-humanized mice (Example 16); format: in vivo, mouse
Description: (§1) To determine the in vivo efficacy of anti-BCMA×anti-CD3 bispecific antibodies (Abs), a syngenic tumor study was performed in mice expressing human CD3. C57BL/6 mice that express human CD3deg in place of murine CD3deg (CD3-humanized mice) were subcutaneously implanted with either 0.5×10^6 B16 melanoma cells that have been engineered to express full-length human BCMA (B16/BCMA cells) or 1×10^6 MC38 colon carcinoma cells that have been engineered to express full-length human BCMA (MC38/BCMA). […] The mice were administered these Abs twice more on days 4 and 7 for a total of three doses, and tumor growth was assessed throughout the experiment.
(§2) Implantation and measurement of syngenic tumors: C57BL/6 mice that express human CD3deg in place of murine CD3deg (CD3-humanized mice) were subcutaneously implanted with either 0.5×10^6 B16F10 melanoma cells that have been engineered to express full-length human BCMA (B16/BCMA cells) or 1×10^6 MC38 colon carcinoma cells that have been engineered to express full-length human BCMA (MC38/BCMA). […] The mice were administered these Abs twice more on days 4 and 7 for a total of three doses, and tumor growth was assessed throughout the experiment.
(§3) Calculation of syngenic tumor growth and inhibition: In order to determine tumor volume by external caliper, the greatest longitudinal diameter (length in mm) and the greatest transverse diameter (width in mm) were determined. Tumor volumes based on caliper measurements were calculated by the formula: Volume (mm^3)=(length×width^2)/2.

MC38/BCMA tumors = experiment: as above; format: in vivo, mouse
Description: as §1, §2, §3

REGN5458: anti-BCMA×anti-CD3 bispecific antibody: mAb21581 BCMA heavy chain, mAb7221G CD3 heavy chain and common light chain; SEQ ID NOs 126, 127, 129
tumor growth (B16/BCMA tumors; 0.4 or 0.04 mg/kg): suppress the growth of both tumor lines in a dose-dependent manner | Average Tumor Size (mm3) ± SEM on Day 5 (B16/BCMA tumors; B16/BCMA Tumor, 0.04 mg/kg): 3.3 ± 2.2 mm3 | Average Tumor Size (mm3) ± SEM on Day 10 (B16/BCMA tumors; B16/BCMA Tumor, 0.04 mg/kg): 15.4 ± 12.5 mm3 | Average Tumor Size (mm3) ± SEM on Day 14 (B16/BCMA tumors; B16/BCMA Tumor, 0.04 mg/kg): 81.4 ± 49.2 mm3 | Average Tumor Size (mm3) ± SEM on Day 5 (B16/BCMA tumors; B16/BCMA Tumor, 0.4 mg/kg): 0.0 ± 0.0 mm3 | Average Tumor Size (mm3) ± SEM on Day 10 (B16/BCMA tumors; B16/BCMA Tumor, 0.4 mg/kg): 0.0 ± 0.0 mm3 | Average Tumor Size (mm3) ± SEM on Day 14 (B16/BCMA tumors; B16/BCMA Tumor, 0.4 mg/kg): 8.1 ± 4.4 mm3 | Average Tumor Size (mm3) ± SEM on Day 18 (B16/BCMA tumors; B16/BCMA Tumor, 0.4 mg/kg): 47.1 ± 17.0 mm3 | tumor growth (MC38/BCMA tumors; 0.4 or 0.04 mg/kg): suppress the growth of both tumor lines in a dose-dependent manner | Average Tumor Size (mm3) ± SEM on Day 5 (MC38/BCMA tumors; MC38/BCMA Tumor, 0.04 mg/kg): 11.9 ± 2.9 mm3 | Average Tumor Size (mm3) ± SEM on Day 10 (MC38/BCMA tumors; MC38/BCMA Tumor, 0.04 mg/kg): 66.7 ± 22.5 mm3 | Average Tumor Size (mm3) ± SEM on Day 14 (MC38/BCMA tumors; MC38/BCMA Tumor, 0.04 mg/kg): 273.3 ± 115.3 mm3 | Average Tumor Size (mm3) ± SEM on Day 18 (MC38/BCMA tumors; MC38/BCMA Tumor, 0.04 mg/kg): 641.5 ± 309.8 mm3 | Average Tumor Size (mm3) ± SEM on Day 10 (MC38/BCMA tumors; MC38/BCMA Tumor, 0.4 mg/kg): 0.0 ± 0.0 mm3 | Average Tumor Size (mm3) ± SEM on Day 14 (MC38/BCMA tumors; MC38/BCMA Tumor, 0.4 mg/kg): 2.9 ± 2.9 mm3 | Average Tumor Size (mm3) ± SEM on Day 18 (MC38/BCMA tumors; MC38/BCMA Tumor, 0.4 mg/kg): 7.5 ± 7.5 mm3
